Assay: In-vivo pharmacokinetic test: ocular distribution of dexamethasone after single administration to the conjunctival sac (LC/MS/MS)
Parameters: species or system pigmented rabbits
Conditions: treated and non-treated eyes
Description: Dexamethasone concentration in ocular tissues was determined by a LC/MS/MS method.
Two experiments were carried out on male pigmented rabbits weighing 1.8-2.2 kg divided into 2 treatment groups, of which only one eye was treated with: 50 μl of the composition containing dexamethasone sodium phosphate in 1% xanthan base (Group I) or 50 μl of dexamethasone sodium phosphate in solution (Group II). In the first experiment the animals were then killed at the following times: 30, 60, 90, 120, 180 and 240 minutes after treatment (n=6 animals for each time point). In the second experiment the animals were killed at these times: 15, 30 and 60 minutes after treatment (n=4 animals for each time point). The active principle was determined in the aqueous humour, vitreous, retina-choroid and plasma after suitable extraction from the biological tissue, by a LC/MS/MS method.

C[C@@H]1C[C@H]2[C@@H]3CCC4=CC(=O)C=C[C@]4(C)[C@@]3(F)[C@@H](O)C[C@]2(C)[C@@]1(O)C(=O)CO [dexamethasone]
Concentrations of dexamethasone in the vitreous: less than 10 ng/ml

— patent US20110117189A1, “OPHTHALMIC COMPOSITIONS FOR TREATING PATHOLOGIES OF THE POSTERIOR SEGMENT OF THE EYE” (S.I.F.I. Societa' Industria Farmaceutica Italiana S.P.A., priority 2008, published 2011)
